IC50 and solubility data for 23 molecules are collected here from ChEMBL document CHEMBL4680245, “Design, synthesis and biological evaluation of tetrahydroquinoline-based reversible LSD1 inhibitors” (Eur J Med Chem, 2020).

Series [1] deals with Lysine-specific histone demethylase 1A (Homo sapiens, UniProt O60341).
Description: Inhibition of human recombinant LSD1 using fluorogenic ADHP based substrate preincubated for 30 mins followed by substrate addition measured after 10 mins by horseradish peroxidase coupled fluorescence assay
In another series the test system is A549. Description: cells. The settings on record: Homo sapiens, A549, 72 h.
The subject of another series is MCF7. Briefly: cells. Particulars: Homo sapiens, MCF7, 72 h.
The test system of another series is MGC-803. Description: cells. The settings on record: Homo sapiens, MGC-803, 72 h.
For another series, the system named is THP-1. Description: cells. The settings on record: Homo sapiens, THP-1, 72 h.
The subject of another series is NB-4. Briefly: cells. Particulars: Homo sapiens, NB-4, 72 h.
The subject of a further series is PC-3. Briefly: cells. The settings on record: Homo sapiens, PC-3, 72 h.
The nature of series [2]: Solubility of compound. The class given is physicochemical.

Molecules are shown by their SMILES.

Description for A549: Antiproliferative activity against human A549 cells incubated for 72 hrs by CCK8 assay
Description for MCF7: Antiproliferative activity against human MCF7 cells incubated for 72 hrs by CCK8 assay
Description for MGC-803: Antiproliferative activity against human MGC-803 cells incubated for 72 hrs by CCK8 assay
Description for NB-4: Antiproliferative activity against human NB-4 cells incubated for 72 hrs by CCK8 assay
Description for PC-3: Antiproliferative activity against human PC-3 cells incubated for 72 hrs by CCK8 assay
Description for THP-1: Antiproliferative activity against human THP-1 cells incubated for 72 hrs by CCK8 assay

`Cn1c(C(=O)Nc2cccc3c2N(Cc2ccc(OC[C@@H]4CCNC4)cc2)CCC3)cc2sccc21`: the results for the IC50 (in series [1]; in the series with A549) were 80.4 nM and 5230 nM, respectively.

Turning to `Cn1c(C(=O)Nc2cccc3c2N(Cc2ccc(OCC4CCNCC4)cc2)CCC3)cc2sccc21`, the IC50 in the series with MCF7 was determined as 6590 nM; in series [1], 37.7 nM; with MGC-803 it was 3690 nM; with THP-1 it was 20400 nM; in the series with NB-4, 2880 nM; with PC-3 it was 4070 nM. This molecule had a concentration for half-maximal inhibition (IC50) with A549 of 2820 nM.

Turning to `Cn1c(C(=O)Nc2cccc3c2N(Cc2ccc(OC4CCNCC4)cc2)CCC3)cc2sccc21`, the IC50 in the series with MCF7 is 5720 nM; in series [1] it was 36.4 nM; with MGC-803 it was 2170 nM; in the series on THP-1, 18100 nM; in the series on NB-4 it was 2780 nM; in the series on PC-3 it was 3640 nM. Further, in the series with A549, the IC50 turned out to be 1250 nM.

For the molecule `N[C@H]1CC[C@H](N[C@H]2C[C@@H]2c2ccccc2)CC1`, the IC50 with MCF7, with MGC-803, in the series on THP-1, in the series on NB-4, in the series on PC-3 and with A549 was over 30000 nM in each case.

For `O=C(Nc1cccc2c1N(Cc1ccc(OC3CCNCC3)cc1)CCC2)c1cc2ccccc2n1CCF`, the IC50 with MCF7 is 6960 nM; in series [1], 0.06 nM; in the series on MGC-803, 6260 nM; in the series on THP-1 it was 9780 nM; in the series on NB-4, 3290 nM; with PC-3, 2600 nM. The molecule also yielded an IC50 with A549 of 7670 nM.

As to `Cn1c(C(=O)Nc2cccc3c2N(Cc2ccc(OC4CCNC4)cc2)CCC3)cc2sccc21` (configuration not stated), the IC50 in series [1] worked out at 46.8 nM; with A549, 3640 nM.

As for `CCn1c(C(=O)Nc2cccc3c2N(Cc2ccc(OC4CCNCC4)cc2)CCC3)cc2ccccc21`, the IC50 in the series on MCF7 was 5590 nM; in series [1], 0.15 nM; with MGC-803, 3670 nM; in the series with THP-1 it was 10200 nM; in the series with NB-4 it was 1100 nM; in the series on PC-3, 5430 nM. The molecule further displayed an IC50 in the series with A549 of 8390 nM.

As for `Cn1c(C(=O)Nc2cccc3c2N(Cc2ccc(OC4CC[N+](C)(C)CC4)cc2)CCC3)cc2sccc21`, in series [1], the IC50 worked out at 8.25 nM. Also, in series [2], the solubility result is “Insoluble”.

As for `Cn1c(C(=O)Nc2cccc3c2N(Cc2ccc(OC4CCNCC4)cc2)CCC3)cc2cc(Cl)ccc21`, the IC50 in series [1] is 16.3 nM.

In series [1], `CN1CCC(COc2ccc(CN3CCCc4cccc(NC(=O)c5cc6sccc6n5C)c43)cc2)CC1` returned a concentration for half-maximal inhibition (IC50) of 53.5 nM.

`O=C(Nc1cccc2c1N(Cc1ccc(OC3CCNCC3)cc1)CCC2)c1cnc2ccccc2c1` displayed an IC50 in series [1] of 18.8 nM.

Molecule `Cn1c(C(=O)Nc2cccc3c2N(Cc2ccc(OCc4cccc(C(N)=O)c4)cc2)CCC3)cc2sccc21` came in with an IC50 in series [1] of over 50000 nM.

In series [1], `Cn1ccc2c(C(=O)Nc3cccc4c3N(Cc3ccc(OC5CCNCC5)cc3)CCC4)cccc21` registered an IC50 of 3.92 nM.

For the molecule `Cn1ccc2cc(C(=O)Nc3cccc4c3N(Cc3ccc(OC5CCNCC5)cc3)CCC4)ccc21`, half-maximal inhibition in series [1] (IC50) required 25.6 nM.

As to `Cn1c(C(=O)Nc2cccc3c2N(Cc2ccc(O[C@H]4CC[C@H](N)CC4)cc2)CCC3)cc2sccc21`, the IC50 in series [1] is 36.6 nM.

In series [1], `Cn1cc(C(=O)Nc2cccc3c2N(Cc2ccc(OC4CCNCC4)cc2)CCC3)c2ccccc21` had an IC50 of 4.55 nM.

On to `Cn1c(C(=O)Nc2cccc3c2N(Cc2ccc(OCC4CC[N+](C)(C)CC4)cc2)CCC3)cc2sccc21`, for which 17.3 nM corresponded to half-maximal inhibition in series [1] (IC50). Moreover, the solubility result in series [2] is given as “Insoluble”.

In series [1], `Cn1c(C(=O)Nc2cccc3c2N(Cc2ccc(OCCCN)cc2)CCC3)cc2sccc21` showed an IC50 of 47.4 nM.

Turning to `Cn1c(C(=O)Nc2cccc3c2N(Cc2ccc(O[C@H]4CC[C@@H](N)CC4)cc2)CCC3)cc2sccc21`, the IC50 amounted to 38.3 nM in series [1] and 7300 nM in the series with A549.

Molecule `Cn1c(C(=O)Nc2cccc3c2N(Cc2ccc(OCc4cccc(C#N)c4)cc2)CCC3)cc2sccc21` registered an IC50 in series [1] of over 50000 nM.

Molecule `CN(C)CCCOc1ccc(CN2CCCc3cccc(NC(=O)c4cc5sccc5n4C)c32)cc1` had a 50% inhibitory concentration (IC50) in series [1] of 31.3 nM.

In series [1], `Cn1c(C(=O)Nc2cccc3c2N(Cc2ccc(OCc4cccc([N+](=O)[O-])c4)cc2)CCC3)cc2sccc21` gave a half-maximal inhibitory concentration (IC50) of over 50000 nM.

`O=C(Nc1cccc2c1N(Cc1ccc(OC3CCNCC3)cc1)CCC2)c1cc2ccccc2o1` yielded an IC50 in series [1] of 0.53 nM.
